Data from patent US8088605B2, “Exopolysaccharides delivery system for active molecules” (Technologies Biolactics Inc., priority 2002, dated 2012).
Entries after “also recorded” stand apart in the source; their conditions may differ. One block for each molecule: values may come before it.

Tests used:
[1] = tested on: IEC-6 rat normal small intestine epithelial cells; test: Survival of IEC-6 cells with 5-Fu and EPS, Alamar Blue; format: cell-based; design: unit not given here; details: three days exposure
Description: (§1) The in vitro toxicity of the exopolysaccharide micelles was tested by incubating the micelles with a wide range of cell lines for 4-hour, 8-hour, 72-hour and 96-hour periods. The XTT™ or Alamar Blue™ assays were used to quantify the survival rates in the presence of the exopolysaccharide micelles. The capability of the exopolysaccharide to deliver an active molecule was first tested in vitro using 5-Fluorouracil (5-Fu) as a model active molecule. […] The 5-Fu/exopolysaccharide formulation was incubated with either B16F10 (murine skin melanoma), Caco-2 (human colon adenocarcinoma) or IEC-6 (rat epithelial small intestine) cells over 72-hour to 96-hour. Vital dyes (XTT or Alamar Blue) were added to supernatants for a period of 4 hours. Absorbance values were collected and plotted to evaluate the survival rate of the cells to the treatment.
(§2) Caco-2, IEC-6 and melanocytes B16 cells were cultured in DMEM supplemented with 10% FBS. […] The cells were grown in a CO2 incubator for 4 extra days. Cell survival was assessed with XTT™ according to manufacturers recommendation. […] The data are as follows:
[NB073]. Percentages of EPS are expressed in (w/v).

[2] = tested on: Caco-2 human colon adenocarcinoma cells in proliferation; test: Survival of Caco-2 cells in proliferation with 5-Fu and EPS, XTT; format: cell-based; details: four days exposure
Description: as §1, §2
(§3) Percentages of EPS are expressed in (w/v).

[3] = tested on: Caco-2 human colon adenocarcinoma cells differentiated; test: Survival of differentiated Caco-2 cells with 5-Fu and EPS, XTT; format: cell-based; details: four days exposure
Description: as §1, §2, §3

[4] = tested on: B16F10 murine skin melanoma cells; test: Survival of B16F10 cells with 5-Fu and EPS, XTT; format: cell-based; details: four days exposure
Description: as §1, §2, §3

[5] = tested on: B16 cells; test: Mice grafted i.p. with B16 cells treated with 5 FU/EPS; format: in vivo, Balb/c mice
Description: Tumor cells were trypsinized and washed 3 times with PBS. Cells (1×10E6) were injected i.p. to Balb/c mice to induce a cancer in the peritoneal cavity. […] This highlighting again that EPS are not inert and may contribute to the therapeutic index.

[6] = Fluorescein pharmacokinetic in rats, oral; format: in vivo, Wistar female rats; design: unit not given here; details: fluorescein 1 mg/kg oral
Description: Fluorescein (FL) pharmacolinetic on unfasten Wistar female rats of 200 g and 8 weeks of age. Fluorescein concentration is 1 mg/kg. […] Fluorescein is added to the latter solutions and vortexed. Formulations are fed to the animals with a canula. 200 μl blood samples are collected through the jugular vein every 30 minutes for 2.5 hours. A final bleeding is made at 3.5 h. Plasma are collected immediately after centrifugation (10 min @ 1300 g). Plasma are frozen on dry ice until further analysis: 50 μl of plasma are diluted in 550 μl of saline 0.7% (w/v) and analyzed with a Varian Eclipse Spectrofluorometer (Excitation: 495 nm Emission: 515 nm). Concentrations were determined on a fluorescein standard curve (FL diluted in saline 0.7% and 50 μl of normal serum as in the sample analysis).

[7] = tested on: B16 cells; test: Intramuscular B16 tumor formation after i.m. injection of paclitaxel-treated cells; format: in vivo; details: mice with tumor / mice in group; cells treated 3 hrs before i.m. injection
Description: (§4) Cells (50000 cells per 50 μl injections) for a concentration of 10^6 cells per ml. The remaining of the test was performed as follows: • Cells from 1XT75 (80% confluence) are trypsinized with 2 ml trypsin, diluted in 12 ml media, spun down, rinsed once in 5 ml PBS, and resuspended in 2 ml PBS. Cells are then counted and concentration adjusted to 10^6 cells per ml. • P1 treatment: Add 200 μl P1 stock and […] of cell suspension (10^6 cells) and incubate at room temperature 3 hrs. Final Paclitaxel=1 mM, DMSO=1%. • P2 treatment: Add 200 μl P2 stock to 1.8 ml of cell suspension (10^6 cells) and incubate at room temperature 3 hrs. […] No growth was observed from either group after 2 weeks in culture.

[8] = tested on: B16 cells; test: Growth in tissue culture of paclitaxel-treated B16 cells; format: cell-based; details: replated after treatment, 2 weeks in culture
Description: as §4

[9] = Rhodamine 123 pharmacokinetic in rats, oral; format: in vivo, Wistar female rats; details: 5 mg/kg oral
Description: The pharmacokinetic of Rhodamine 123 (R123) was performed on unfasten Wistar female rats of 200 g and 8 weeks of age. Rhodamine concentration is 5 mg/kg. […] Rhodamine is added to the latter solutions and vortexed. Formulations are fed to the animals with a canula and 200 μl blood samples are collected through the jugular vein every hour for 4 hours (plus 1 sample at 0.5 h). Plasma are collected immediately after centrifugation (10 min @ 13000 g). Plasma are frozen on dry ice until further analysis: 50 μl of plasma are diluted in 550 μl of saline 0.7% (w/v) and analyzed with a Varian Eclipse™ Spectrofluorometer (Excitation: 505 nm Emission: 540 nm). Concentrations were determined on a Rhodamine 123 standard curve (R123 diluted in saline 0.7% and 50 μl of normal serum as in the sample analysis).

Molecule: O=c1[nH]cc(F)c(=O)[nH]1 [5-Fu alone, 5-Fluorouracil]
- Survival of IEC-6 cells ([1]; Table 5, 5-Fu 5 μg/ml): 16.9 ± 6.4
- Survival of IEC-6 cells ([1]; Table 5, 5-Fu 50 μg/ml): 28.0 ± 4.6
- Survival of IEC-6 cells ([1]; Table 5, 5-Fu 250 μg/ml): 35.4 ± 8.2
- Survival of IEC-6 cells ([1]; Table 5, 5-Fu 500 μg/ml): 33.4 ± 3.5
- Survival of IEC-6 cells ([1]; Table 6, 5-Fu 1 μg/ml): 78.0 ± 3.0
- Survival of IEC-6 cells ([1]; Table 6, 5-Fu 10 μg/ml): 75.4 ± 2.9
- Survival of IEC-6 cells ([1]; Table 6, 5-Fu 50 μg/ml): 81.8 ± 2.1
- Survival of IEC-6 cells ([1]; Table 6, 5-Fu 100 μg/ml): 80.2 ± 0.9
- Survival of Caco-2 cells in proliferation ([2]; 5-Fu 1 μg/ml): 74.1 ± 1.9
- Survival of Caco-2 cells in proliferation ([2]; 5-Fu 10 μg/ml): 78.6 ± 2.4
- Survival of Caco-2 cells in proliferation ([2]; 5-Fu 50 μg/ml): 80.3 ± 1.8
- Survival of Caco-2 cells in proliferation ([2]; 5-Fu 100 μg/ml): 52.6 ± 4.8
- Survival of Caco-2 cells differentiated ([3]; 5-Fu 1 μg/ml): 105.7 ± 4.2
- Survival of Caco-2 cells differentiated ([3]; 5-Fu 10 μg/ml): 85.6 ± 8.8
- Survival of Caco-2 cells differentiated ([3]; 5-Fu 50 μg/ml): 99.6 ± 6.8
- Survival of Caco-2 cells differentiated ([3]; 5-Fu 100 μg/ml): 78.1 ± 0.7
- Survival of B16F10 cells ([4]; 5-Fu 1 μg/ml): 62.6 ± 6.6
- Survival of B16F10 cells ([4]; 5-Fu 10 μg/ml): 65.4 ± 10.4
- Survival of B16F10 cells ([4]; 5-Fu 50 μg/ml): 54.9 ± 8.9
- Survival of B16F10 cells ([4]; 5-Fu 100 μg/ml): 38.8 ± 8.5
- Tumor-free mice ([5]; day 0): 100%
- Tumor-free mice ([5]; day 15, 5 FU 100 mg/kg, EPS 0.1% w/v, treatment after 4 days): 62.5%
- Tumor-free mice ([5]; day 29, 5 FU 100 mg/kg, EPS 0.1% w/v, treatment after 4 days): 12.5%
- Tumor-free mice ([5]; day 44, 5 FU 100 mg/kg, EPS 0.1% w/v, treatment after 4 days): 12.5%

- Fluorescein concentration in plasma ([6]; time 0.0 h): 37.10
- Fluorescein concentration in plasma ([6]; time 0.5 h): 218.30
- Fluorescein concentration in plasma ([6]; time 1.0 h): 145.95
- Fluorescein concentration in plasma ([6]; time 1.5 h): 75.25
- Fluorescein concentration in plasma ([6]; time 2.0 h): 74.48
- Fluorescein concentration in plasma ([6]; time 2.5 h): 71.74
- Fluorescein concentration in plasma ([6]; time 3.5 h): 54.63
Molecule: O=C1OC2(c3ccc(O)cc3Oc3cc(O)ccc32)c2ccccc21 [FL-Water, Fluorescein]

Molecule: CC(=O)O[C@H]1C(=O)[C@@]2(C)[C@H]([C@H](OC(=O)c3ccccc3)[C@]3(O)C[C@H](OC(=O)[C@H](O)[C@@H](NC(=O)c4ccccc4)c4ccccc4)C(C)=C1C3(C)C)[C@]1(OC(C)=O)CO[C@@H]1C[C@@H]2O [P1, Paclitaxel]
- Intramuscular tumor formation [7]: 12/15
- Growth in tissue culture [8]: No growth; also recorded: negative

- Rhodamine 123's concentration in plasma ([9]; time 0.0 h): 2.2 ± 2.2 ng/mL
- Rhodamine 123's concentration in plasma ([9]; time 0.5 h): 20.4 ± 2.2 ng/mL
- Rhodamine 123's concentration in plasma ([9]; time 1.0 h): 20.9 ± 2.6 ng/mL
- Rhodamine 123's concentration in plasma ([9]; time 2.0 h): 15.4 ± 2.0 ng/mL
- Rhodamine 123's concentration in plasma ([9]; time 3.0 h): 10.9 ± 1.4 ng/mL
- Rhodamine 123's concentration in plasma ([9]; time 4.0 h): 11.2 ± 1.8 ng/mL
Molecule: Rhodamine 123 [R123 - Water]
